Experiment [1] addresses T1, Mesoderm-specific transcript homolog protein (Homo sapiens) (UniProt Q5EB52).
T1 sequence (whole entry): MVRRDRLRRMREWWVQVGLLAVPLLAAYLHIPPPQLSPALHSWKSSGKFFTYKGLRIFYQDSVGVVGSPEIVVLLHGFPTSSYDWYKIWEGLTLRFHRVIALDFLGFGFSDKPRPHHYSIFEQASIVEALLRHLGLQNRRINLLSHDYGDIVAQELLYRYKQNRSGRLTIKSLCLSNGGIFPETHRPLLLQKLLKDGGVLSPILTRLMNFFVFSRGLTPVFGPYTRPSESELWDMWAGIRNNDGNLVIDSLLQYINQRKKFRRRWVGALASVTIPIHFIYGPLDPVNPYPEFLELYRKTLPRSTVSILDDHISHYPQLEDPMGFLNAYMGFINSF
Put plainly: Inhibition of human recombinant MEST T579B (2 to 335 amino acids) expressed in Sf9 cell membranes assessed as reduction in glycerol 3-phosphate acyltransferase activity at 10 uM using [3H]-glycerol 3-phosphate and palmitoyl CoA incubated for 60 mins by scintillation counting assay relative to control.

In experiment [2] the target is T1, Mesoderm-specific transcript homolog protein (Homo sapiens). As to the kind of experiment: Inhibition of human recombinant MEST T579B (2 to 335 amino acids) expressed in Sf9 cell membranes assessed as reduction in glycerol 3-phosphate acyltransferase activity at 3 uM using [3H]-glycerol 3-phosphate and palmitoyl CoA incubated for 60 mins by scintillation counting assay relative to control.

The target is the same in experiment [3]. As to the kind of experiment: Inhibition of human recombinant MEST T579B (2 to 335 amino acids) expressed in Sf9 cell membranes assessed as reduction in glycerol 3-phosphate acyltransferase activity at 1 uM using [3H]-glycerol 3-phosphate and palmitoyl CoA incubated for 60 mins by scintillation counting assay relative to control.
Experiment [4] shares this target. As to the kind of experiment: Inhibition of human recombinant MEST T579B (2 to 335 amino acids) expressed in Sf9 cell membranes assessed as reduction in glycerol 3-phosphate acyltransferase activity at 0.3 uM using [3H]-glycerol 3-phosphate and palmitoyl CoA incubated for 60 mins by scintillation counting assay relative to control.
Experiment [5] has the same target. Put plainly: Inhibition of human recombinant MEST T579B (2 to 335 amino acids) expressed in Sf9 cell membranes assessed as reduction in glycerol 3-phosphate acyltransferase activity using [3H]-glycerol 3-phosphate and palmitoyl CoA incubated for 60 mins by scintillation counting assay.
For experiment [6] the target is unchanged. As to the kind of experiment: Inhibition of human recombinant MEST T579B (2 to 335 amino acids) expressed in Sf9 cell membranes assessed as reduction in glycerol 3-phosphate acyltransferase activity at 0.1 uM using [3H]-glycerol 3-phosphate and palmitoyl CoA incubated for 60 mins by scintillation counting assay relative to control.
The target is the same in experiment [7]. As to the kind of experiment: Inhibition of human recombinant MEST T579B (2 to 335 amino acids) expressed in Sf9 cell membranes assessed as reduction in glycerol 3-phosphate acyltransferase activity at 0.03 uM using [3H]-glycerol 3-phosphate and palmitoyl CoA incubated for 60 mins by scintillation counting assay relative to control.
Experiment [8] concerns the target T2, Glycerol-3-phosphate acyltransferase 1, mitochondrial (Homo sapiens) (UniProt Q9HCL2).
T2 sequence (whole entry): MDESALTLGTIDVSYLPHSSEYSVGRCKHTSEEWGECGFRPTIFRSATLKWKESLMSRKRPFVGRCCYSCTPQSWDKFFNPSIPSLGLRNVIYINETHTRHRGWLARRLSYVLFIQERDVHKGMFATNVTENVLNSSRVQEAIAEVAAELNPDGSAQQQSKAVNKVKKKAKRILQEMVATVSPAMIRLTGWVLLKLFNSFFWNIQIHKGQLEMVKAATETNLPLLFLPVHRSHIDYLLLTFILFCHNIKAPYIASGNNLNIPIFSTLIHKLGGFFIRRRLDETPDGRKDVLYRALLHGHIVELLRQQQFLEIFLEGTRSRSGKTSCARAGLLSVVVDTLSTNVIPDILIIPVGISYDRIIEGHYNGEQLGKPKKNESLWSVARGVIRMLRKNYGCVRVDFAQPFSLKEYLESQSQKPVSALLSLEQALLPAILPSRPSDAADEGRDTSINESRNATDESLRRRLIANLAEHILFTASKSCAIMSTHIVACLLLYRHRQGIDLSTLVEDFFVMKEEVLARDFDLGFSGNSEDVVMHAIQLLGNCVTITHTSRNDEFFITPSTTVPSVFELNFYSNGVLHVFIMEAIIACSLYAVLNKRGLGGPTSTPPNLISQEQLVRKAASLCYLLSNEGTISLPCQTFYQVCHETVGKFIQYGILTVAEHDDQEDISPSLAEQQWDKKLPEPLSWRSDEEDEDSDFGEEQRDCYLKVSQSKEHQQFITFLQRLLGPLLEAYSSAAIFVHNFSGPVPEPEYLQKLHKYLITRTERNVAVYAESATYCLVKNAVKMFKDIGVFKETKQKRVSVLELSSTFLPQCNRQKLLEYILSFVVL
As to the kind of experiment: Inhibition of GPAT1 (unknown origin) expressed in Sf9 cell membranes assessed as reduction in glycerol 3-phosphate acyltransferase activity at 10 uM using [3H]-glycerol 3-phosphate and palmitoyl CoA incubated for 60 mins by scintillation counting assay relative to control.

For experiment [9], the target named is T2, Glycerol-3-phosphate acyltransferase 1, mitochondrial (Homo sapiens). As to the kind of experiment: Inhibition of GPAT1 (unknown origin) expressed in Sf9 cell membranes assessed as reduction in glycerol 3-phosphate acyltransferase activity at 3 uM using [3H]-glycerol 3-phosphate and palmitoyl CoA incubated for 60 mins by scintillation counting assay relative to control.

The target is the same in experiment [10]. As to the kind of experiment: Inhibition of GPAT1 (unknown origin) expressed in Sf9 cell membranes assessed as reduction in glycerol 3-phosphate acyltransferase activity at 1 uM using [3H]-glycerol 3-phosphate and palmitoyl CoA incubated for 60 mins by scintillation counting assay relative to control.
For experiment [11] the target is unchanged. As to the kind of experiment: Inhibition of GPAT1 (unknown origin) expressed in Sf9 cell membranes assessed as reduction in glycerol 3-phosphate acyltransferase activity at 0.3 uM using [3H]-glycerol 3-phosphate and palmitoyl CoA incubated for 60 mins by scintillation counting assay relative to control.
Experiment [12] has the same target. Put plainly: Inhibition of GPAT1 (unknown origin) expressed in Sf9 cell membranes assessed as reduction in glycerol 3-phosphate acyltransferase activity at 0.1 uM using [3H]-glycerol 3-phosphate and palmitoyl CoA incubated for 60 mins by scintillation counting assay relative to control.
Experiment [13] shares this target. As to the kind of experiment: Inhibition of GPAT1 (unknown origin) expressed in Sf9 cell membranes assessed as reduction in glycerol 3-phosphate acyltransferase activity at 0.03 uM using [3H]-glycerol 3-phosphate and palmitoyl CoA incubated for 60 mins by scintillation counting assay relative to control.
Experiment [14] has as its target T3, Glycerol-3-phosphate acyltransferase 3 (Homo sapiens) (UniProt Q53EU6).
T3 sequence (whole entry): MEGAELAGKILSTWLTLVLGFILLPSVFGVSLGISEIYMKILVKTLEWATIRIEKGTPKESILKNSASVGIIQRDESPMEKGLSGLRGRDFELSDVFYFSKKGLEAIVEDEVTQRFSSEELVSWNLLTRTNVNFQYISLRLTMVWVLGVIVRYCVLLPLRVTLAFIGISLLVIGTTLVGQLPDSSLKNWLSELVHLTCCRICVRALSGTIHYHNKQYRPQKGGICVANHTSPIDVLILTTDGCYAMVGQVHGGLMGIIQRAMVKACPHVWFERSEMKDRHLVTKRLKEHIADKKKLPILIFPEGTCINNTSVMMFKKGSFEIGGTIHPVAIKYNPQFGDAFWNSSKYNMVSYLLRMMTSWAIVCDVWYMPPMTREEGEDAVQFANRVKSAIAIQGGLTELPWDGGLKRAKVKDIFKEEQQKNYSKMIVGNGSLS
Put plainly: Inhibition of GPAT3 (unknown origin) expressed in Sf9 cell membranes assessed as reduction in glycerol 3-phosphate acyltransferase activity at 10 uM using [3H]-glycerol 3-phosphate and palmitoyl CoA incubated for 60 mins by scintillation counting assay relative to control.

Experiment [15] addresses T3, Glycerol-3-phosphate acyltransferase 3 (Homo sapiens). Put plainly: Inhibition of GPAT3 (unknown origin) expressed in Sf9 cell membranes assessed as reduction in glycerol 3-phosphate acyltransferase activity at 3 uM using [3H]-glycerol 3-phosphate and palmitoyl CoA incubated for 60 mins by scintillation counting assay relative to control.

For `O=C(CO)COP(=O)(O)O`, the inhibition was 69% in experiment [1]; 51% in experiment [2]; 27% in experiment [3]; 24% in experiment [4]; “Dose-dependent effect” in experiment [5]; -6% in experiment [6]. Also, the inhibition in experiment [7] is -5%; in experiment [8], 72%; in [9], 47%; in experiment [10] it was 29%; in [11], 11%; in experiment [12] it was 10%. The inhibition came to 4% in experiment [13], 57% in experiment [14] and 38% in experiment [15].

As usually defined, the inhibition is the relative decrease from the control value, in per cent.

Source of the values: ChEMBL document CHEMBL4482303, “Test system for measuring mest activity as well as methods and uses involving the same” (2012).
